Patent publication US7858348B2, “N-acetyl-(R,S)-beta-amino acid acylase gene” (Ajinomoto Co., Inc., priority 2006, dated 2010)

Tests used:
Type in all cases: biochemical
[1] = system: N-acetyl-(S)-β-amino acid acylase derived from Burkholderia sp. AJ110349 (JM109/pSFN_2BS cell-free extract); experiment: Substrate specificity and optical selectivity with cell-free extract of JM109/pSFN_2BS; details: for β-amino acid enantiomer detected in the reaction solution / optical selectivity of β-amino acid produced (ee): JM109/pSFN-2BS, chiral HPLC; for β-amino acid enantiomer detected in the reaction solution: 24 hours (10 minutes for the 3,4-(—O—CH2—O—) substrate); for optical selectivity of β-amino acid produced (ee): after reacting for 24 hours; for Concentration of acetic acid detected: JM109/pSFN_2BS 50 mU cell-free extract, 37° C.
Protocol: (§1) An Astec Chirobiotec T (0.46 cm in diameter, 25 cm) column was employed. A 90 percent MeOH mobile phase was employed. The temperature was 40° C. and the flow rate was 0.4 mL/minute. Optical selectivity was determined based on comparison with various standard (R) and (S) standard products under UV detection conditions of 205 nm.
(§2) The column employed was comprised of an Inertsil ODS3 (0.46 cm in diameter, 5 cm) made by GL Science and a Chiralpak WH (0.46 cm in diameter, 25 cm) made by Daisel Chemical Industries, arranged consecutively in that order. The mobile phase was 1 mM CuSO4, 10 percent MeOH. The temperature was 50° C. and the flow rate was 1.0 mL/minute. Detection was conducted with a UV detector at 210 nm and optical selectivity was determined by comparison with standard (R) and (S) products.
(§3) JM109/ptrp4—3BR, JM109/pSFN—2BS, and JM109/pSFN—1VR were precultured for 16 hours at 37° C. in LB medium containing 100 mg/L of ampicillin. 1 mL quantity of the cultured bacterial cells was transplanted to 50 mL of TB medium containing 100 mg/L of ampicillin and cultured for 16 hours at 30° C. The bacterial cells obtained were centrifugally separated to concentrate the bacteria cells. The bacterial cells were washed with 50 mM Tris buffer solution (pH 7.6) and the same buffer solution was used to prepare a bacterial cell suspension. Ultrasonic rupturing was employed to rupture the bacterial cells. A supernatant solution obtained by centrifugal separation (15,000 g, 10 minutes, 4° C.) was employed as a cell-free extract, and substrate specificity for the various N-acetyl-(R,S)-β-amino acids described above in Embodiments 2-1 to 9 was examined.
(§4) After adjusting the enzymes by the above methods, their activity was measured. Activity producing 1 μmol of β-Phe per minute from N-acetyl-(R,S)-β-Phe was denoted as 1 U. In the various examination of substrate specificity, 50 mU cell-free extracts were employed. As a negative control, instead of the cell-free medium prepared as set forth above, a 50 mM Tris buffer solution (pH 7.6) that had been reacted with each of the substrates was employed as an “Enzyme-” test zone, and instead of the individual substrates, 50 mM Tris buffer solution (pH 7.6) that had been reacted with each of the cell-free extracts was employed as a “Substrate-” test zone.
(§5) 50 mM Tris-HCl (pH 7.6) and 0.2 percent of various N-acetyl-(R,S)-β-amino acids were reacted at 37° C. for 1 hour or 24 hours, and then processed for 10 minutes at 96° C. to stop the reactions. The quantity of acetic acid produced by the decomposition of acetyl groups was determined by the protocol of an acetic acid kit (Roche).
(§6) After reacting for 24 hours, the samples were analyzed with various chiral resolution columns to determine optical selectivity.
(§7) A 300 μL quantity of culture solution was washed with 50 mM Tris-HCl (pH 7.6), suspended in 300 μL of 50 mM Tris-HCl (pH 7.6), and subjected to ultrasonic rupturing to rupture the bacteria. A supernatant solution obtained by centrifugal separation (15,000 g, 10 minutes, 4° C.) was employed as cell-free extract in the reaction.
(§8) 50 mM Tris-HCl (pH 7.6) and 0.2 percent N-acetyl-(R,S)-3,4-(—O—CH2—O—)-β-phenylalanine were reacted for 10 minutes at 37° C. When 3,4-(—O—CH2—O—)-β-phenylalanine was quantized under the separation conditions of N-acetyl-β-Phe and β-Phe, the activity per mL of cell-free extract was 0.2 U for JM109/ptrp4—3BR, 3.9 U for JM109/pSFN—2BS, and 27.8 U for JM109/pSFN—1VR.
(§9) Various enzymes were prepared from the same bacterial cells and by the same methods as in 12-1, and 50 mU cell-free extracts were employed in the reaction. 50 mM Tris-HCl (pH 7.6) and 1 percent N-acetyl-(R,S)-β-3-Pyr-Ala were reacted for 1 hour at 37° C., after which the reaction was stopped by treatment at 70° C. for 10 minutes. The quantity of acetic acid generated by the decomposition of acetyl groups was determined by the protocol of an acetic acid kit (Roche).

[2] = system: N-acetyl-(R)-β-amino acid acylase derived from Burkholderia sp. AJ110349 (JM109/ptrp4_3BR cell-free extract); experiment: Substrate specificity and optical selectivity with cell-free extract of JM109/ptrp4_3BR; details: for β-amino acid enantiomer detected in the reaction solution / optical selectivity of β-amino acid produced (ee): chiral HPLC; for β-amino acid enantiomer detected in the reaction solution: 24 hours (10 minutes for the 3,4-(—O—CH2—O—) substrate); for Concentration of acetic acid detected: JM109/ptrp4_3BR 50 mU cell-free extract, 37° C.; for optical selectivity of β-amino acid produced (ee): after reacting for 24 hours
Protocol: as §1, §2, §3, §4, §5, §6, §7, §8, §9

[3] = system: N-acetyl-(R)-β-amino acid acylase derived from Variovorax sp. AJ110348 (JM109/pSFN_1VR cell-free extract); experiment: Substrate specificity and optical selectivity with cell-free extract of JM109/pSFN_1VR; details: for β-amino acid enantiomer detected in the reaction solution / optical selectivity of β-amino acid produced (ee): chiral HPLC; for β-amino acid enantiomer detected in the reaction solution: 24 hours (10 minutes for the 3,4-(—O—CH2—O—) substrate); for Concentration of acetic acid detected: JM109/pSFN_1VR 50 mU cell-free extract, 37° C.; for optical selectivity of β-amino acid produced (ee): after reacting for 24 hours
Protocol: as §1, §2, §3, §4, §5, §6, §7, §8, §9

[4] = 0.2 percent substrate, 24 hours

SMILES	β-amino acid enantiomer detected in the reaction solution [1]	activity per mL of cell-free extract ([1]; JM109/pSFN—2BS, 0.2 percent substrate, 10 minutes at 37° C.) [U]	activity per mL of cell-free extract ([2]; JM109/ptrp4—3BR, 0.2 percent substrate, 10 minutes at 37° C.) [U]	β-amino acid enantiomer detected in the reaction solution ([2]; JM109/ptrp4—3BR)	activity per mL of cell-free extract ([3]; JM109/pSFN—1VR, 0.2 percent substrate, 10 minutes at 37° C.) [U]	β-amino acid enantiomer detected in the reaction solution ([3]; JM109/pSFN—1VR)	optical selectivity of β-amino acid produced (ee) [1] [% ee]	Concentration of acetic acid detected ([1]; 0.2 percent substrate, 1 hour) [mM]	Concentration of acetic acid detected [1, 4] [mM]	Concentration of acetic acid detected ([2]; 0.2 percent substrate, 1 hour) [mM]	Concentration of acetic acid detected [2, 4] [mM]	optical selectivity of β-amino acid produced (ee) ([2]; JM109/ptrp4—3BR) [% ee]	Concentration of acetic acid detected ([3]; 0.2 percent substrate, 1 hour) [mM]	Concentration of acetic acid detected [3, 4] [mM]	optical selectivity of β-amino acid produced (ee) ([3]; JM109/pSFN—1VR) [% ee]
CC(=O)NC(CC(=O)O)c1ccc2c(c1)OCO2 (racemic) [N-acetyl-(R,S)-3,4-(—O—CH2—O—)-β-phenylalanine]	(S)-3,4-(—O—CH2—O—)-β-phenylalanine was detected	3.9	0.2	(R)-3,4-(—O—CH2—O—)-β-phenylalanine was detected	27.8	(R)-3,4-(—O—CH2—O—)-β-phenylalanine was detected									
CC(=O)NC(CC(=O)O)Cc1ccccc1 (racemic) [N-Ac-β-homoPhe, N-acetyl-(R,S)-β-homoPhe]	(R)-β-homoPhe was detected			(S)-β-homoPhe was detected		(S)-β-homoPhe was detected	> 99	0.5	4.0	1.6	3.7	98	0.1	2.6	> 99
CC(=O)NC(CC(=O)O)CC(C)C (racemic) [N-Ac-β-homoLeu, N-acetyl-(R,S)-β-homoLeu]	(R)-β-homoLeu was detected			(S)-β-homoLeu was detected		(S)-β-homoLeu was detected	> 99	1.2	5.4	3.0	7.5	69	0.0	0.6	> 99
